Article PMC8201735 (BMC Pharmacology & Toxicology, 2021)

Tested on: subjects with T2DM
Assay: Adverse event monitoring, RE co-administered with metformin for 13 days
Type: in vivo, human
Details: for Any AE / Tolerability of co-administration with metformin: 13 days; for Tolerability of co-administration with metformin: RE 500 or 750 mg BID + metformin >=2000 mg/day
Text: The study was comprised of three phases; run-in, randomization, and treatment. […] In treatment phase the patients were considered in two cohorts. […] The adverse events monitoring included recording of any adverse event (AE) and serious adverse event (SAE) reported or observed during the entire study and follow-up period. All the subjects were counseled to inform study staff of any AEs that occurred during the study. Any abnormal laboratory findings (e.g., clinical chemistry, hematology, and urinalysis) or other abnormal assessments (e.g., ECGs, vital signs, physical examination) that were judged by the investigator as clinically significant were recorded as AEs or SAE.

[1] = RE 500 mg BID + metformin, N = 16
[2] = RE 750 mg BID + metformin, N = 17

What does the source list for `CCOC(=O)OC[C@H]1O[C@@H](Oc2nn(C(C)C)c(C)c2Cc2ccc(OC(C)C)cc2)[C@H](O)[C@@H](O)[C@@H]1O` [RE, remogliflozin etabonate]?
Any AE (RE 500 mg BID + metformin >=2000 mg/day, N = 16): 6 (38%) N(%); Dizziness [1]: 1 (6%) N(%); Nausea [1]: 1 (6%) N(%); Thirst [1]: 0 N(%); Post-therapy AEs (RE 750 mg + metformin group): no post-therapy AEs; Subjects with hypoglycemic laboratory events (RE 750 mg + metformin group, moderate, resolved with sweets): one; Any AE (RE 750 mg BID + metformin >=2000 mg/day, N = 17): 4 (24%) N(%); Diarrhoea [2]: 1 (6%) N(%); Dizziness [2]: 1 (6%) N(%); Dyslipidemia [2]: 0 N(%); Nausea [2]: 1 (6%) N(%); Supraventricular tachycardia [2]: 0 N(%); Urinary tract infection [2]: 0 N(%); Vomiting [2]: 1 (6%) N(%); Tolerability of co-administration with metformin: generally well tolerated; Tolerability of co-administration with metformin (listed as remogliflozin etabonate): well tolerated
